Results published in ChEMBL document CHEMBL1156007, “mu-Opioid/5-HT4 dual pharmacologically active agents-efforts towards an effective opioid analgesic with less GI and respiratory side effects (Part I)” (Bioorg Med Chem Lett, 2009).

Key:
Mu-type opioid receptor = Mu-type opioid receptor (Homo sapiens, UniProt P35372); test: Binding affinity to human mu opioid receptor
[1] = target: T1, 5-hydroxytryptamine receptor 3A (Homo sapiens, UniProt P46098); test: Displacement of [3H]granisetron from human recombinant 5-HT3 receptor expressed in HEK293 cells; type: cell-based
T1 sequence (P46098 whole entry): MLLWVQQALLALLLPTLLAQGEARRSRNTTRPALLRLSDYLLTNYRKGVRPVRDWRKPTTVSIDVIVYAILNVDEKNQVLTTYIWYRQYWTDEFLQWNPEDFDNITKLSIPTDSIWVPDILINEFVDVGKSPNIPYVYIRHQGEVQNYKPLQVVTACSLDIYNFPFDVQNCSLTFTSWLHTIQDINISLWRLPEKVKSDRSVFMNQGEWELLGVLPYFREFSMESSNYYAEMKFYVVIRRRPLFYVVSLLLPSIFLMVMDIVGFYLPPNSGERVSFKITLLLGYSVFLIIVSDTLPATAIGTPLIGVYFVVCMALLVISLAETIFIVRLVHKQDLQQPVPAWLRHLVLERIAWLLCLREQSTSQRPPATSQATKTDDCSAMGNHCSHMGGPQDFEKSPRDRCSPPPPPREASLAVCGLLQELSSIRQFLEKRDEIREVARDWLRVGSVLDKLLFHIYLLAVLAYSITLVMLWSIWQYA

[2] = target: T2, 5-hydroxytryptamine receptor 4 (Homo sapiens, UniProt Q13639); test: Displacement of [3H]GR-113808 from human recombinant 5-HT4 receptor
[3] = target: T2, 5-hydroxytryptamine receptor 4; test: Agonist activity at human recombinant 5-HT4 receptor; type: functional
[4] = target: T1, 5-hydroxytryptamine receptor 3A; test: Antagonist activity at human recombinant 5-HT3 receptor expressed in HEK293 cells; type: functional, cell-based

T2 sequence (Q13639 whole entry): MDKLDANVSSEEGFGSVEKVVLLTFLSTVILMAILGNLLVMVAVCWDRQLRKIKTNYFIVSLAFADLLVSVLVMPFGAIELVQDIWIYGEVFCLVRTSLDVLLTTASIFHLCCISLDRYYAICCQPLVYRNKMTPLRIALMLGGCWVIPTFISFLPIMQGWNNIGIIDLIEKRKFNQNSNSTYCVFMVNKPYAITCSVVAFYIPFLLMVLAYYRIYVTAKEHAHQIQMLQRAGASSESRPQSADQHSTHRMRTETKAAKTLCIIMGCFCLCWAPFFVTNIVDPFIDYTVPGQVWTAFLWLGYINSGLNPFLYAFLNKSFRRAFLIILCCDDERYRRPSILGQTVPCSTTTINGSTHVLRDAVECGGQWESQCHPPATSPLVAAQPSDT
Sequence of Mu-type opioid receptor (P35372 whole entry): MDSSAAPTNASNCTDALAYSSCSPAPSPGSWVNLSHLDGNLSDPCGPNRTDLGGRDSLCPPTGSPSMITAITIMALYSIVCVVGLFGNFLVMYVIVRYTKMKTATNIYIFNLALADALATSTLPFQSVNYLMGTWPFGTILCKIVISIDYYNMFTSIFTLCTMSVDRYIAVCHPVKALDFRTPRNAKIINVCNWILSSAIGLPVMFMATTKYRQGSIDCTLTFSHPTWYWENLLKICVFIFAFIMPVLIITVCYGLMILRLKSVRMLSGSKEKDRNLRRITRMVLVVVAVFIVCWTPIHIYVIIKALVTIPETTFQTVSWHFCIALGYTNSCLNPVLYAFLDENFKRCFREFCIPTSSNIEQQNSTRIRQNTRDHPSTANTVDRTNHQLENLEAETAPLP

Structure (SMILES) | IC50 (Mu-type opioid receptor) [nM] | IC50 [1] [nM] | IC50 [2] [nM] | EC50 [3] [nM] | EC50 [4] [nM]
COc1cc(N)c(Cl)cc1C(=O)N[C@@H]1CCN(C[C@H]2CCCC[C@]2(O)c2cccc(O)c2)C[C@@H]1OC | > 10000 | 1600 | > 10000 | – | –
COc1cccc([C@]2(O)CCCC[C@H]2CN(C)CCNC(=O)c2cc(Cl)c(N)cc2OC)c1 | > 10000 | 4900 | > 10000 | – | –
COc1cc(N)c(Cl)cc1C(=O)N[C@@H]1CCN(C[C@@H]2CCCC[C@@]2(O)c2cccc(O)c2)C[C@@H]1OC | > 10000 | 1400 | > 10000 | – | –
COc1cccc([C@]2(O)CCCC[C@H]2CN2CC[C@@H](NC(=O)c3cc(Cl)c(N)cc3OC)[C@@H](OC)C2)c1 | > 10000 | 159 | 3900 | 120 | > 10000
COc1cc(N)c(Cl)cc1C(=O)NCCN(C)C[C@H]1CCCC[C@]1(O)c1cccc(O)c1 | 340 | 3100 | > 10000 | – | –
COc1cccc([C@]2(O)CCCC[C@H]2CN2CC[C@H](NC(=O)c3cc(Cl)c(N)cc3OC)[C@H](OC)C2)c1 | > 10000 | 1700 | 4600 | – | –
COc1cccc([C@@]2(O)CCCC[C@@H]2CN(C)CCNC(=O)c2cc(Cl)c(N)cc2OC)c1 | 4500 | 3500 | 5000 | – | –
COc1cc(N)c(Cl)cc1C(=O)NCCN(C)CC1CCCCC1(O)c1cccc(O)c1 (racemic) | 190 | 2800 | > 10000 | – | –
COc1cc(N)c(Cl)cc1C(=O)NC1CCNCC1OC (racemic) [NORCISAPRIDE] | – | 1600 | 19 | 290 | 2300
COc1cccc([C@@]2(O)CCCC[C@@H]2CN2CC[C@@H](NC(=O)c3cc(Cl)c(N)cc3OC)[C@@H](OC)C2)c1 | > 10000 | 2800 | > 10000 | – | –
COc1cc(N)c(Cl)cc1C(=O)N[C@H]1CCN(C[C@@H]2CCCC[C@@]2(O)c2cccc(O)c2)C[C@H]1OC | 410 | 18 | 9900 | 90 | –
COc1cc(N)c(Cl)cc1C(=O)N[C@H]1CCN(C[C@H]2CCCC[C@]2(O)c2cccc(O)c2)C[C@H]1OC | > 10000 | 390 | > 10000 | – | –
COc1cc(N)c(Cl)cc1C(=O)NCCN(C)C[C@@H]1CCCC[C@@]1(O)c1cccc(O)c1 | 5100 | 2500 | > 10000 | – | –
COc1cccc([C@@]2(O)CCCC[C@@H]2CN2CC[C@H](NC(=O)c3cc(Cl)c(N)cc3OC)[C@H](OC)C2)c1 | > 10000 | 790 | 6100 | – | –
